Results reported in doi:10.1101/2023.11.24.568596v1 (biorxiv, 2023).
Blank lines part the entries; values can stand above or below the molecule they belong to.

Key:
Details in all cases: binder
BMX = biological target: T1, BMX (Homo sapiens, UniProt P51813)
T1 sequence (P51813 1-675): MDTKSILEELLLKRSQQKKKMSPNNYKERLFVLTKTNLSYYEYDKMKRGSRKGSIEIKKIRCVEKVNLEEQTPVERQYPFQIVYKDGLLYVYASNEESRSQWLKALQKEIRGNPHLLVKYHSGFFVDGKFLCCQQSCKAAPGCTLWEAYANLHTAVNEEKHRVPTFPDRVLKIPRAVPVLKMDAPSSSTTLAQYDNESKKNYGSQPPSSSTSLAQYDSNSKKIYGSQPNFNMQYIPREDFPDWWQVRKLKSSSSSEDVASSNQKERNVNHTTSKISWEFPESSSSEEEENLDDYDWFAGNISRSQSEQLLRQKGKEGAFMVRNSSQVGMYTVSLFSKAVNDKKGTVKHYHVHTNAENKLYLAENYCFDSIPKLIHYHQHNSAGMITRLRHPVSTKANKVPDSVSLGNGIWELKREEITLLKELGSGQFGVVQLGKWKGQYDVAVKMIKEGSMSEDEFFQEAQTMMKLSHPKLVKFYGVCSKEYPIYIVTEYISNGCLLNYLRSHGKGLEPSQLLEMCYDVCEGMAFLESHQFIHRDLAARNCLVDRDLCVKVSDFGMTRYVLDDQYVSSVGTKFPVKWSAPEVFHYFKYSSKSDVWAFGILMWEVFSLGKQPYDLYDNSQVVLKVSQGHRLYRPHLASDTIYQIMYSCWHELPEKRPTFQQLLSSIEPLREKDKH

BRAF = BRAF (Homo sapiens, UniProt P15056)
Sequence of BRAF (P15056 whole entry): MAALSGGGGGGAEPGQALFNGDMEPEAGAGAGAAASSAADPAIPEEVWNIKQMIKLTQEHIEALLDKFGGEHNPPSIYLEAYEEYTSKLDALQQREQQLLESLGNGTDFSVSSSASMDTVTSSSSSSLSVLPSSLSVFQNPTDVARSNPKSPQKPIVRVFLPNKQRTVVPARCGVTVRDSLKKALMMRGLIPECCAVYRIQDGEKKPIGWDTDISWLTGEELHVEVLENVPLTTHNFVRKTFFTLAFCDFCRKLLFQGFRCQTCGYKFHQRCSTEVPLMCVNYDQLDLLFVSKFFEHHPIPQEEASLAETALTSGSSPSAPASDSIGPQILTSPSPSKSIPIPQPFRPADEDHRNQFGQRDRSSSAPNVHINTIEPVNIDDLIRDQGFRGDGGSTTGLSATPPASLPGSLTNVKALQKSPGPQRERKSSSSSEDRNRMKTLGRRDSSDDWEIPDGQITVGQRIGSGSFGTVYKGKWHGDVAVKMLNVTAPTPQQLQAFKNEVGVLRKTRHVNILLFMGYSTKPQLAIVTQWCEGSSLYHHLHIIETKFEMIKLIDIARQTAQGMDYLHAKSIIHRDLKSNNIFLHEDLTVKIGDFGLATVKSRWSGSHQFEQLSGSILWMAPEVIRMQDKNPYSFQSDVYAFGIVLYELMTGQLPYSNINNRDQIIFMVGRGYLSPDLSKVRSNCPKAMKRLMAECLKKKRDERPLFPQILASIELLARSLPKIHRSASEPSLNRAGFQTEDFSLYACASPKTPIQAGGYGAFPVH

CDKL1 = CDKL1 (Homo sapiens, UniProt Q00532)
Sequence of CDKL1 (Q00532 whole entry): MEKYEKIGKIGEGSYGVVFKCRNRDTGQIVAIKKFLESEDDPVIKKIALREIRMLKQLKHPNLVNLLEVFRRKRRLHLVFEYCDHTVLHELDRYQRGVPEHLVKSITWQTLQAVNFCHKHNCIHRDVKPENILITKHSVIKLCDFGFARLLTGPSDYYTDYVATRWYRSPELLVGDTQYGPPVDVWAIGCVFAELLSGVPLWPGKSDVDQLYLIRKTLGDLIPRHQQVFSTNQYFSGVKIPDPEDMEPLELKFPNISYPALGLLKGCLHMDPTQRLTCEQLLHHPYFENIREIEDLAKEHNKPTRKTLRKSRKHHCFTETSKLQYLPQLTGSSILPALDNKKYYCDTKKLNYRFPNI

CK2a2 = CK2a2 (Homo sapiens, UniProt P19784)
Sequence of CK2a2 (P19784 whole entry): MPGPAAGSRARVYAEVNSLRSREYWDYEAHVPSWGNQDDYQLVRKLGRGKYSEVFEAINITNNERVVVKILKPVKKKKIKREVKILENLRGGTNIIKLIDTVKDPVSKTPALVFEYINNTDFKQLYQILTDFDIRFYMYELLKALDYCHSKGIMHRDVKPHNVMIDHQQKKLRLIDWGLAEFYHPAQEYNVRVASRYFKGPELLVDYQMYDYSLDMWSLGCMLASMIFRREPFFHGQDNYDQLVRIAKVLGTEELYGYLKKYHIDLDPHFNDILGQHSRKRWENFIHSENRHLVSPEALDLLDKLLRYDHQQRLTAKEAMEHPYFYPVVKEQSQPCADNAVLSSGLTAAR

CaMK1g = CaMK1g (Homo sapiens, UniProt Q96NX5)
DAPK1 = DAPK1 (Homo sapiens, UniProt P53355)
DAPK3 = DAPK3 (Homo sapiens, UniProt O43293)
DRAK2 = biological target: T2, DRAK2 (Homo sapiens, UniProt O94768)
T2 sequence (O94768 1-372): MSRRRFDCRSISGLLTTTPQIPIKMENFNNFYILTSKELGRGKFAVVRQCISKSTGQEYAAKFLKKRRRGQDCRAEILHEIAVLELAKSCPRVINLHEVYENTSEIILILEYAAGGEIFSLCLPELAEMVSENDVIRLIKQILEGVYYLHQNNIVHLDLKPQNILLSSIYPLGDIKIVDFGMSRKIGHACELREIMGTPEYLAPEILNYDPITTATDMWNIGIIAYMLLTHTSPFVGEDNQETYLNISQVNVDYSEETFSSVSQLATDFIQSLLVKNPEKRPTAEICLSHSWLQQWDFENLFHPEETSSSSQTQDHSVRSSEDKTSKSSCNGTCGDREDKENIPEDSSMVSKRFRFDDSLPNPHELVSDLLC

EphA7 = EphA7 (Homo sapiens, UniProt Q15375)
Sequence of EphA7 (Q15375 whole entry): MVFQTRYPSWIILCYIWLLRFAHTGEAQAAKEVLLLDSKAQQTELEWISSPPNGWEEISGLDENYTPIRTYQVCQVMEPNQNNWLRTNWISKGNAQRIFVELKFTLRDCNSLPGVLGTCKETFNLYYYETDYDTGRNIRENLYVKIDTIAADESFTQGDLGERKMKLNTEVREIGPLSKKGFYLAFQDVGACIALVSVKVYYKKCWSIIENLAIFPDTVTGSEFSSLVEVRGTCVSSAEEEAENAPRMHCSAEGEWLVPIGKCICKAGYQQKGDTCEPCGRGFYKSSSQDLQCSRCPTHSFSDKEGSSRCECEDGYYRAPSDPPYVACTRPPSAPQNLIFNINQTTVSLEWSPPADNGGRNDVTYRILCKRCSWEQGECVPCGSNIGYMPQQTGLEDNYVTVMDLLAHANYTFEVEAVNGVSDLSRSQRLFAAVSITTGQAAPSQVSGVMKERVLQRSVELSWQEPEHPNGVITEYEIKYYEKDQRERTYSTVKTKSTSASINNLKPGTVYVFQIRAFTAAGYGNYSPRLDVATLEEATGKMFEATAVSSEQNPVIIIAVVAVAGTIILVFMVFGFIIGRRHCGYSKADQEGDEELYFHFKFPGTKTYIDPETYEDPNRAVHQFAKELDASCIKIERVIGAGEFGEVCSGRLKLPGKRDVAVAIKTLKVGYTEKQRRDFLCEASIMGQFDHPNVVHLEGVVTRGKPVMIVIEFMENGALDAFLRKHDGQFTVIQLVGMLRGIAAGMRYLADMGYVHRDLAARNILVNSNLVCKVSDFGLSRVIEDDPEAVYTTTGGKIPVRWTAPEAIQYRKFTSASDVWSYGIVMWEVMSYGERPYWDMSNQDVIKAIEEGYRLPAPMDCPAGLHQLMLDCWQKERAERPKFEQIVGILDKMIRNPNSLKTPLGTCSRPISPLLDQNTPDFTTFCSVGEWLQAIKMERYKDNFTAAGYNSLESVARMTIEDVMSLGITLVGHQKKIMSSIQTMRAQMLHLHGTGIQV

FGFR1 = FGFR1 (Homo sapiens, UniProt P11362)
MAPKAPK2 = MAPKAPK2 (Homo sapiens, UniProt P49137)
Sequence of MAPKAPK2 (P49137 whole entry): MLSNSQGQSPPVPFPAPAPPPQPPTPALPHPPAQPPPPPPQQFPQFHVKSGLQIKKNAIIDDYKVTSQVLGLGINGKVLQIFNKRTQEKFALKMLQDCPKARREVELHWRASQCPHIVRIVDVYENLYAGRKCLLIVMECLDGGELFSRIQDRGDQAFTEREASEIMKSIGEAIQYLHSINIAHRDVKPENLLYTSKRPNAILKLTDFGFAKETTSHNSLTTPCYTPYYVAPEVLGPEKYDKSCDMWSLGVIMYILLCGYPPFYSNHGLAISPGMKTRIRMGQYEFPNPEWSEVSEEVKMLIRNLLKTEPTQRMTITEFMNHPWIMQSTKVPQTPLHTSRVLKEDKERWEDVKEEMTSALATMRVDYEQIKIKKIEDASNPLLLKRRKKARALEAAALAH

NEK2 = biological target: T3, NEK2 (Homo sapiens, UniProt P51955)
T3 sequence (P51955 1-445): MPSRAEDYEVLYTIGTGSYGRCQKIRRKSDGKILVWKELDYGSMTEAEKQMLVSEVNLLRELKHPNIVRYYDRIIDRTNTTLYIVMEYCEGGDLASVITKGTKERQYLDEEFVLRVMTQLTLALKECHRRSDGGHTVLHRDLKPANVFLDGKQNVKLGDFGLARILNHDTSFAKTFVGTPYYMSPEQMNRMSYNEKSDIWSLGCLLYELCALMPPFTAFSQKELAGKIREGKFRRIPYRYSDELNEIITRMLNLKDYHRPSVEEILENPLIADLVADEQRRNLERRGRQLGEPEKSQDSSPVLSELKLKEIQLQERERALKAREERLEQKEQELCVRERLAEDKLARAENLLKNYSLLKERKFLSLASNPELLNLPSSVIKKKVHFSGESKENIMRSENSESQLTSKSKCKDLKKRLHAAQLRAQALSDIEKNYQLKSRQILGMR

TAF1 = TAF1 (Homo sapiens, UniProt P21675)
Sequence of TAF1 (P21675 whole entry): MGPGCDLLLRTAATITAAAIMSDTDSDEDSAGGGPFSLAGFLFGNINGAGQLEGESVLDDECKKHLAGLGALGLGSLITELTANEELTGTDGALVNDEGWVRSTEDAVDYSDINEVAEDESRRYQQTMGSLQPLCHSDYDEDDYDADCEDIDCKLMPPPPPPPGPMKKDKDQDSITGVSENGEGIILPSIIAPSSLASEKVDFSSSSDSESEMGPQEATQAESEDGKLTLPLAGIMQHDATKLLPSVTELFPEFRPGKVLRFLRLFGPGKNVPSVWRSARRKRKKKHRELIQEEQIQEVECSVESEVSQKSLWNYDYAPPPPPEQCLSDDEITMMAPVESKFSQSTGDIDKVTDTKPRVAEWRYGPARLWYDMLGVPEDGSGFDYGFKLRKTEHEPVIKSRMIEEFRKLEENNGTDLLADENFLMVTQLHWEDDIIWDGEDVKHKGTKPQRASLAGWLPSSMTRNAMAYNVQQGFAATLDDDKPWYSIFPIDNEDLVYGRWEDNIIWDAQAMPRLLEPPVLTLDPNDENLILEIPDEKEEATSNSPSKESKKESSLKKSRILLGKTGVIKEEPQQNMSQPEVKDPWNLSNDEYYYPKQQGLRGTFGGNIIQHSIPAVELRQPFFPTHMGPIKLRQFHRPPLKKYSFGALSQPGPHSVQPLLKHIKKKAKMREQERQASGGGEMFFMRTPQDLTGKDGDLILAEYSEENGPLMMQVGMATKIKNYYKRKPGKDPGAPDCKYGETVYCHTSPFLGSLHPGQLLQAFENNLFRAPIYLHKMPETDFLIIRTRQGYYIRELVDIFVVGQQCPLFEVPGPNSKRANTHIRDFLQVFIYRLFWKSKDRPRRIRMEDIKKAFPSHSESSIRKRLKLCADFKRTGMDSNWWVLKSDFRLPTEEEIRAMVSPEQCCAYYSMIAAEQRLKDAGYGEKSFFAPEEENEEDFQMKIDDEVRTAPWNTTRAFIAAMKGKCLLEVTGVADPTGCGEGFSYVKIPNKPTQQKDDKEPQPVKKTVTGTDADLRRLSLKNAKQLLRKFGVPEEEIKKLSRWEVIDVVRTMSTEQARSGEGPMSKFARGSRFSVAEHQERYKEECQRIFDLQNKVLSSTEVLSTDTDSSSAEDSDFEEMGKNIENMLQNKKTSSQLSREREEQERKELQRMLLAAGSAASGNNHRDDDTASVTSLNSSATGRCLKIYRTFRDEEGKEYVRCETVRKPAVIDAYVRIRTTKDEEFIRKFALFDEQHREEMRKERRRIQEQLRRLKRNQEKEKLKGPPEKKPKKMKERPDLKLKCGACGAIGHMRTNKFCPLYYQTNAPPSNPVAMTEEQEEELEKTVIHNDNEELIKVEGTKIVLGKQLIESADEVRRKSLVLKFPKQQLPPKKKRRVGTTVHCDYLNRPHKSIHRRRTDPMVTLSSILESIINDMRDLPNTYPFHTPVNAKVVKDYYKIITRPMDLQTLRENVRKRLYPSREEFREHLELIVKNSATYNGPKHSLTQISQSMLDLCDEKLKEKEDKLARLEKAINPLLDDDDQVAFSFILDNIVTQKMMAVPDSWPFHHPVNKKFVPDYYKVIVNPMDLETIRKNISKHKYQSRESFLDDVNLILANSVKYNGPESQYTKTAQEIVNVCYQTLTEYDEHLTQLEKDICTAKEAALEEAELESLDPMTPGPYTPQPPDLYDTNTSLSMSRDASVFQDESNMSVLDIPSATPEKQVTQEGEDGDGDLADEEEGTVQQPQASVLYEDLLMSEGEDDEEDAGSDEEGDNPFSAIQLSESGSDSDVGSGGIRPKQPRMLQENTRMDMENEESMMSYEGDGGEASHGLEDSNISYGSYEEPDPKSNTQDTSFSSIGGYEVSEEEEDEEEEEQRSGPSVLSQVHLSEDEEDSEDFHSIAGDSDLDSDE

- dTm 33 (BMX): 7.1 °C
- dTm 33 (BRAF): 6.3 °C
- dTm 33 (CDKL1): 2.0 °C
- dTm 33 (CK2a2): -1.2 °C
- dTm 33 (CaMK1g): 6.7 °C
- dTm 33 (DAPK1): -1.1 °C
- dTm 33 (DAPK3): 1.9 °C
- dTm 33 (DRAK2): 10.5 °C
- dTm 33 (EphA7): 5.3 °C
- dTm 33 (FGFR1): 2.0 °C
- dTm 33 (MAPKAPK2): -0.5 °C
- dTm 33 (NEK2): 10.6 °C
- dTm 33 (TAF1): -0.2 °C
Compound: Cc1cccc(-c2ccc(-c3cc4cnc(Nc5ccc(F)c(CO)c5)nc4n(CCCCN)c3=O)c(Cl)c2)n1 [compound 33, 8-(4-Aminobutyl)-6-(2-chloro-4-(6-methylpyridin-2-yl)phenyl)-2-((4-fluoro-3-(hydroxymethyl)phenyl)amino)pyrido[2,3-d]pyrimidin-7(8H)-one]

- dTm 35 (BMX): 4.4 °C
- dTm 35 (BRAF): 0.8 °C
- dTm 35 (CDKL1): 0.3 °C
- dTm 35 (CK2a2): 0.1 °C
- dTm 35 (CaMK1g): 7.1 °C
- dTm 35 (DAPK1): -2.1 °C
- dTm 35 (DAPK3): 3.2 °C
- dTm 35 (DRAK2): 7.0 °C
- dTm 35 (EphA7): 5.8 °C
- dTm 35 (FGFR1): 0.4 °C
- dTm 35 (MAPKAPK2): -0.6 °C
- dTm 35 (NEK2): 10.6 °C
- dTm 35 (TAF1): -0.7 °C
Compound: COc1cc(N2CCOCC2)ccc1Nc1ncc2cc(-c3ccc(-c4cccc(C)n4)cc3Cl)c(=O)n(CCCCN)c2n1 [compound 35, 8-(4-Aminobutyl)-6-(2-chloro-4-(6-methylpyridin-2-yl)phenyl)-2-((2-methoxy-4-morpholino-phenyl)amino)pyrido[2,3-d]pyrimidin-7(8H)-one]

- dTm 36 (BMX): 3.3 °C
- dTm 36 (BRAF): 0.8 °C
- dTm 36 (CDKL1): 0.8 °C
- dTm 36 (CK2a2): -0.5 °C
- dTm 36 (CaMK1g): 7.0 °C
- dTm 36 (DAPK1): -1.2 °C
- dTm 36 (DAPK3): 1.6 °C
- dTm 36 (DRAK2): 4.3 °C
- dTm 36 (EphA7): 5.0 °C
- dTm 36 (FGFR1): 2.0 °C
- dTm 36 (MAPKAPK2): -0.1 °C
- dTm 36 (NEK2): 9.2 °C
- dTm 36 (TAF1): -0.4 °C
Compound: COc1cc(N2CCN(C)CC2)ccc1Nc1ncc2cc(-c3ccc(-c4cccc(C)n4)cc3Cl)c(=O)n(CCCCN)c2n1 [compound 36, 8-(4-Aminobutyl)-6-(2-chloro-4-(6-methylpyridin-2-yl)phenyl)-2-((2-methoxy-4-(4-methylpiperazin-1-yl)phenyl)amino)pyrido[2,3-d]pyrimidin-7(8H)-one]

- dTm 34 (BMX): 4.1 °C
- dTm 34 (BRAF): 1.1 °C
- dTm 34 (CDKL1): 1.5 °C
- dTm 34 (CK2a2): 0.1 °C
- dTm 34 (CaMK1g): 3.8 °C
- dTm 34 (DAPK1): -0.8 °C
- dTm 34 (DAPK3): 1.5 °C
- dTm 34 (DRAK2): 7.5 °C
- dTm 34 (EphA7): 3.4 °C
- dTm 34 (FGFR1): 0.9 °C
- dTm 34 (MAPKAPK2): -0.1 °C
- dTm 34 (NEK2): 8.4 °C
- dTm 34 (TAF1): 0.1 °C
Compound: COc1ccc(O)c(Nc2ncc3cc(-c4ccc(-c5cccc(C)n5)cc4Cl)c(=O)n(CCCCN)c3n2)c1 [compound 34, 8-(4-Aminobutyl)-6-(2-chloro-4-(6-methylpyridin-2-yl)phenyl)-2-((2-hydroxy-5-methoxy-phenyl)amino)pyrido[2,3-d]pyrimidin-7(8H)-one]
